Data on eight compounds can be found in ChEMBL document CHEMBL1135073, “Solution and solid-phase synthesis of potent inhibitors of hepatitis C virus NS3 proteinase” (Bioorg Med Chem Lett, 2002).

*1 amine or outer side, *2 acyl side, *3 side chain or, on linkers, in order; H or OH if unused. Where a SMILES comes first, the peptide text is derived from it. [ ]: non-standard residue; d: D form. The star is where a group is joined. Nleψ(COCO) = CCCC[C@H](N[*:1])C(=O)C(=O)[*:2]; Acetyl(2-naphthyl) = O=C(Cc1ccc2ccccc2c1)*; NH(1S-phenylpropyl) = CC[C@H](N*)c1ccccc1; Phe(2-Me) = Cc1ccccc1C[C@H](N)C(=O)O; NleCONH2 = CCCC[C@H](N*)C(=O)C(N)=O; 3Thi = N[C@@H](Cc1ccsc1)C(=O)O; Phg = N[C@H](C(=O)O)c1ccccc1; Suc = O=C(CCC(=O)[*:2])[*:1]; Tle = CC(C)(C)[C@H](N)C(=O)O; Bn = c1ccc(C*)cc1

Sequence of NS3 (A3EZJ3 whole entry): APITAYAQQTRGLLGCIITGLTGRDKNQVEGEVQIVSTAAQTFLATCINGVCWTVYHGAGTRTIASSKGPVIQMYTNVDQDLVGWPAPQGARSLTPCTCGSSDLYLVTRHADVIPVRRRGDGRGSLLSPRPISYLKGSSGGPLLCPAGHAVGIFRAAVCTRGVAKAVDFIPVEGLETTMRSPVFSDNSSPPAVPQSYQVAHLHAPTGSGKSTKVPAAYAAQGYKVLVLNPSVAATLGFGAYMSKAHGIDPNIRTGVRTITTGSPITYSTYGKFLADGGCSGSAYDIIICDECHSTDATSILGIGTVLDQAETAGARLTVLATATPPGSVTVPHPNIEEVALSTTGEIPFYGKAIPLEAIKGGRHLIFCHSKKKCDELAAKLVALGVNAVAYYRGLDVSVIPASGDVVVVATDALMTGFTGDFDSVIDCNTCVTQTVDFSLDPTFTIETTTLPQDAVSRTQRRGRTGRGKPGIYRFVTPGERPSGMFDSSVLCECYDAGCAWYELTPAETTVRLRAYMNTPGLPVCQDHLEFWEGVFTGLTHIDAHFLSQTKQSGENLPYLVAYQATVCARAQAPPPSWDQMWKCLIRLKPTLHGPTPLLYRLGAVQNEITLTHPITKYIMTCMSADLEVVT

This test has as its target NS3 (Hepatitis C virus, UniProt A3EZJ3). The test is described as follows: Inhibitory concentration against Hepatitis C virus NS3 proteinase. More on the design: species or system Hepacivirus hominis.
Broadly, the IC50 is the midpoint of a concentration-inhibition curve. Read a low IC50 as greater potency in that assay. `CCCC[C@H](NC(=O)[C@H](CC(C)C)NC(=O)[C@@H](NC(=O)[C@H](Cc1ccc(OCc2ccccc2)cc1)NC(=O)[C@H](CCC(=O)O)NC(=O)[C@H](CC(=O)O)NC(=O)CCC(=O)O)C(C)(C)C)C(=O)C(N)=O` (Suc-DEY(Bn)[Tle]L-NleCONH2) showed an IC50 of 110 nM.
The same measure for `CCCC[C@H](NC(=O)[C@H](CC(C)C)NC(=O)[C@@H](NC(=O)[C@H](Cc1ccccc1C)NC(=O)[C@H](CCC(=O)O)NC(=O)[C@H](CC(=O)O)NC(=O)CCC(=O)O)c1ccccc1)C(=O)C(N)=O` (Suc-DE[Phe(2-Me)][Phg]L-NleCONH2): 42 nM; for `CCCC[C@H](NC(=O)[C@H](CC(C)C)NC(=O)[C@@H](NC(=O)[C@H](Cc1ccccc1C)NC(=O)[C@H](CCC(=O)O)NC(=O)[C@H](CC(=O)O)NC(=O)CCC(=O)O)C(C)(C)C)C(=O)C(=O)N[C@@H](CC)c1ccccc1` (Suc-DE[Phe(2-Me)][Tle]L[Nleψ(COCO)]-{NH(1S-phenylpropyl)}): 11 nM.
Then `CCCC[C@H](NC(=O)[C@H](Cc1ccsc1)NC(=O)[C@@H](NC(=O)[C@H](Cc1ccccc1C)NC(=O)[C@H](CCC(=O)O)NC(=O)[C@H](CC(=O)O)NC(=O)CCC(=O)O)C(C)(C)C)C(=O)C(N)=O` (Suc-DE[Phe(2-Me)][Tle][3Thi]-NleCONH2), with 130 nM; and `CCCC[C@H](NC(=O)[C@H](CC(C)C)NC(=O)[C@@H](NC(=O)[C@H](Cc1ccccc1C)NC(=O)[C@H](COCc1ccccc1)NC(=O)[C@H](CC(=O)O)NC(=O)CCC(=O)O)C(C)(C)C)C(=O)C(N)=O` (Suc-DS(Bn)[Phe(2-Me)][Tle]L-NleCONH2), with 29 nM.
The same measure for `CCCC[C@H](NC(=O)[C@H](CC(C)C)NC(=O)[C@@H](NC(=O)[C@H](Cc1ccccc1C)NC(=O)[C@@H](NC(=O)[C@H](CC(=O)O)NC(=O)CCC(=O)O)C(C)C)C(C)(C)C)C(=O)C(N)=O` (Suc-DV[Phe(2-Me)][Tle]L-NleCONH2): 20 nM.
In the case of `CCCC[C@H](NC(=O)[C@H](CC(C)C)NC(=O)[C@@H](NC(=O)[C@H](Cc1ccccc1C)NC(=O)[C@H](CCC(=O)O)NC(=O)[C@H](Cc1c[nH]c2ccccc12)NC(=O)CCC(=O)O)C(C)(C)C)C(=O)C(N)=O` (Suc-WE[Phe(2-Me)][Tle]L-NleCONH2), the IC50 came to 41 nM. This IC50 lies about 2-fold higher than the previous one.
`CCCC[C@H](NC(=O)[C@H](CC(C)C)NC(=O)[C@@H](NC(=O)[C@H](Cc1ccccc1C)NC(=O)[C@H](CCC(=O)O)NC(=O)[C@H](CC(=O)O)NC(=O)Cc1ccc2ccccc2c1)C(C)(C)C)C(=O)C(N)=O` ({Acetyl(2-naphthyl)}-DE[Phe(2-Me)][Tle]L-NleCONH2) displayed a half-inhibitory concentration (IC50) of 90 nM.
